Patent US12515963B2, “Nanoparticle composition and method of inhibiting ovarian cancer cell viability” (priority 2019, dated 2026)
Like-named read-outs stand apart in the source and are kept apart here. One block for each compound: values may come before it.

Columns and labels:
[1] = system: vancomycin resistant Leuconostoc mesenteroides VKPM B-4177; assay: Minimum inhibitory concentration (MIC); type: cell-based
Method: (§1) Minimum inhibitory concentration (MIC) was determined to assess antibacterial and antifungal activities of the samples in microorganisms. MIC is the lowest concentration of a drug, which prevents visible growth of bacterium. The tested panel of microorganisms represent a very broad spectrum of microorganisms, including Gram-positive and Gram-negative strains (Staphylococcus aureus vs. Escherichia coli), methicillin resistant strain INA 00761 (Staphylococcus aureus), vancomycin resistant strain VKPM B-4177 (Leuconostoc mesenteroides), fungi strain INA 00760 (Aspergillus niger), and yeast strain RIA259 (Saccharomyces cerevisiae).
(§2) Minimum inhibitory concentration (MIC) was determined to assess the antibacterial potential of the compositions of Example 6 in microorganisms. MIC is the lowest concentration of a drug which prevents visible growth of bacterium. The tested panel of microorganisms represented a very broad spectrum of antibiotic resistant microorganisms. Sample 4-1 and Tetracycline (as control) were tested against multidrug-resistant Salmonella typhimurium DT 104. Sample 4-2 and Amoxicillin (as control) were tested against Bacillus subtilis. Sample 4-3 and Vancomycin (as control) were tested against vancomycin resistant Enterococcus type Van-A and also vancomycin resistant Leuconostoc mesenteroides VKPM B-4177. In all test conditions monometallic silver nanoparticle composition with Miramistin® alone (obtained using a process known in the art) were used as a control. This composition is referred to as “Ag-NPs-Myramistin in Table 8.

[2] = system: CRL-2945 and U-87 cancer cells; assay: Activity of the drugs alone on cancer cells; type: cell-based, human; settings: drug alone, data not shown
Method: (§3) The cytotoxic effects of Samples 6-1, 6-2, 7-1 and 7-2, glucosamine and Metformin on cancer cells were studied in CRL-2945 (human ovarian carcinoma) and U-87 (human glioblastoma). The doxorubicin resistant CRL-2945 and U-87 cells were generated by exposing the cells to the cytotoxic drug at incrementally increasing concentrations. In this way, resistant sublines were obtained (CRL-2945-R and U-87-R). The cell viability was analyzed in cells treated with different concentrations of Sample 6-1, Sample 6-2, Sample 7-1 and Sample 7-2. The samples were able to reduce viability in a dose-dependent manner. […] The doses were used to calculate IC50 values against the control cells (Table 12).
Higher toxicity of Sample 6-2 can be explained by the fact that Sample 6-2 bears very toxic doxorubicin, which is delivered into the cells with nanoparticles. […] Cancer cells CRL-2945-R and U-87-R were cultured in serum-free media to enrich the populations with cancer stem cells. Thus, enriched cells were tested with the samples.

[3] = system: Escherichia coli ATCC 25922; assay: Minimum inhibitory concentration (MIC); type: cell-based
Method: as §1

[4] = system: Saccharomyces cerevisiae RIA 259; assay: Minimum inhibitory concentration (MIC); type: cell-based
Method: as §1

[5] = system: Aspergillus niger INA 00760; assay: Minimum inhibitory concentration (MIC); type: cell-based
Method: as §1

[6] = system: methicillin resistant Staphylococcus aureus INA 00761; assay: Minimum inhibitory concentration (MIC); type: cell-based
Method: as §1

[7] = system: Staphylococcus aureus FDA 209P; assay: Minimum inhibitory concentration (MIC); type: cell-based
Method: as §1

[8] = system: multidrug-resistant Salmonella typhimurium DT 104; assay: Minimum inhibitory concentration (MIC); type: cell-based; settings: Salmonella enterica
Method: as §2

[9] = system: Bacillus subtilis; assay: Minimum inhibitory concentration (MIC); type: cell-based
Method: as §2

[10] = system: CRL-2945-R; assay: Cancer cell viability (cytotoxic effect), doxorubicin resistant subline; type: cell-based; settings: Homo sapiens, Doxorubicin column
Method: as §3

[11] = system: U-87-R; assay: as above; type: cell-based; settings: Homo sapiens, Doxorubicin column
Method: as §3

[12] = system: U-87 (human glioblastoma); assay: Cancer cell viability (cytotoxic effect); type: cell-based; settings: U-87, Doxorubicin column
Method: (§4) The cytotoxic effects of Samples 1-1 and 1-3 on cancer cells were studied in HCT-116 (human colon cancer cell lines), CRL-2945 (human ovarian carcinoma) and U-87 (human glioblastoma). Cell viability was analyzed in cells treated with different concentrations of Sample 1-1 and Sample 1-3. Nanoparticle samples were able to reduce viability in a dose-dependent manner. […] The doses were used to calculate IC50 value against the control cells (Table 3).
as §3

[13] = system: CRL-2945 (human ovarian carcinoma); assay: Cancer cell viability (cytotoxic effect); type: cell-based; settings: CRL-2945, Doxorubicin column
Method: as §4, §3

SMILES: CN[C@H](CC(C)C)C(=O)N[C@H]1C(=O)N[C@@H](CC(N)=O)C(=O)N[C@H]2C(=O)N[C@H]3C(=O)N[C@H](C(=O)N[C@H](C(=O)O)c4cc(O)cc(O)c4-c4cc3ccc4O)[C@H](O)c3ccc(c(Cl)c3)Oc3cc2cc(c3O[C@@H]2O[C@H](CO)[C@@H](O)[C@H](O)[C@H]2O[C@H]2C[C@](C)(N)[C@H](O)[C@H](C)O2)Oc2ccc(cc2Cl)[C@H]1O [Vancomycin]
- MIC ([1]; Leuconostoc mesenteroides): > 128 µg/mL

SMILES: CN(C)C(=N)N=C(N)N [Metformin]
- activity alone on cancer cells [2]: did not show any significant activity

SMILES: O=[N+]([O-])[O-].[Ag+] [Silver Nitrate, silver nitrate]
- MIC ([1]; Leuconostoc mesenteroides VKPM B-4177): 5 µg/mL
- MIC [3]: 10 µg/mL
- MIC [4]: 10 µg/mL
- MIC [5]: 20 µg/mL
- MIC [6]: 5 µg/mL
- MIC [7]: 20 µg/mL

- MIC [8]: > 128 µg/mL
SMILES: CN(C)[C@@H]1C(O)=C(C(N)=O)C(=O)[C@@]2(O)C(O)=C3C(=O)c4c(O)cccc4[C@@](C)(O)[C@H]3C[C@@H]12 [Tetracycline]

SMILES: N[C@H]1C(O)O[C@H](CO)[C@@H](O)[C@@H]1O (stereo partly drawn) [Glucosamine]
- activity alone on cancer cells [2]: did not show any significant activity

SMILES: CC1(C)S[C@@H]2[C@H](NC(=O)[C@H](N)c3ccc(O)cc3)C(=O)N2[C@H]1C(=O)O [Amoxicillin]
- MIC [9]: > 128 µg/mL

- MIC ([1]; Leuconostoc mesenteroides VKPM B-4177, read-out: MIC): 10 µg/mL
- MIC ([3]; ATCC25922, read-out: MIC): 20 µg/mL
- MIC ([4]; RIA259, read-out: MIC): 20 µg/mL
- MIC ([5]; INA00760, read-out: MIC): 20 µg/mL
- MIC ([6]; read-out: MIC): 10 µg/mL
- MIC ([7]; FDA209P, read-out: MIC): 5 µg/mL
SMILES: CCCCCCCCCCCCCC(=O)NCCC[N+](C)(C)Cc1ccccc1.[Cl-] [Miramistin ®, benzyl-dimethyl-[3-(tetradecanoylamino)propyl]ammonium chloride]

SMILES: COc1cccc2c1C(=O)c1c(O)c3c(c(O)c1C2=O)C[C@@](O)(C(=O)CO)C[C@@H]3O[C@H]1C[C@H](N)[C@H](O)[C@H](C)O1 [Doxorubicin]
- IC50 [10]: 280 nM
- IC50 [11]: 1200 nM
- IC50 [12]: 80 nM
- IC50 [13]: 130 nM
